The record followed here is PMC6233306 (Bioorganic & medicinal chemistry letters, 2018).

For this test, the system named is FadD32 mutant strains of Mtb (E120 and F291). The format is cell-based, Mycobacterium tuberculosis.
As to `CNC(=O)c1cc(-c2ccccc2Cl)c2c(C)c(-c3ccncc3)c(C)cc2n1` [Compound 21b], the “activity versus the E120 and F291 mutants compared to wild-type” value is reported as “markedly less activity”.

For the molecule `Cc1cc2nccc(-c3ccccc3)c2c(C)c1-c1ccc(CN2CCOCC2)cc1` [Compound 8], the “activity versus the E120 and F291 mutants compared to wild-type” value is recorded as “markedly less activity”.

On to `Cc1cc2nccc(-c3cncnc3)c2c(C)c1-c1ccc(CN2CCOCC2)cc1` [Compound 15n], for which the “FadD32 mutant MIC90” value is 100 µM; the “activity versus the E120 and F291 mutants compared to wild-type” value is given as “markedly less activity”.

In the case of `Cc1cc2nccc(-c3ccnn3C)c2c(C)c1-c1ccc(CN2CCOCC2)cc1` [Compound 15m], the “FadD32 mutant MIC90” value was found to be 100 µM; the “activity versus the E120 and F291 mutants compared to wild-type” value is recorded as “markedly less activity”.
